Experimental data reported in ChEMBL document CHEMBL4627246, “Pyroglutamide-Based P2X7 Receptor Antagonists Targeting Inflammatory Bowel Disease” (J Med Chem, 2020).

Assays:
Format in all cases: cell-based
[1] = system: SR; assay: Cytotoxicity against human SR cells assessed as effect on cell growth at 10 uM incubated for 48 hrs by sulforhodamine B assay
[2] = system: HOP-92; assay: Cytotoxicity against human HOP92 cells assessed as effect on cell growth at 10 uM incubated for 48 hrs by sulforhodamine B assay; settings: hop-92, 48 h
[3] = system: TK-10; assay: Cytotoxicity against human TK10 cells assessed as effect on cell growth at 10 uM incubated for 48 hrs by sulforhodamine B assay; settings: tk-10, 48 h
[4] = system: NCI-H23; assay: Cytotoxicity against human NCI-H23 cells assessed as effect on cell growth at 10 uM incubated for 48 hrs by sulforhodamine B assay; settings: nci-h23, 48 h
[5] = system: 786-0; assay: Cytotoxicity against human 786-0 cells assessed as effect on cell growth at 10 uM incubated for 48 hrs by sulforhodamine B assay; settings: 786-0, 48 h
[6] = system: SN12C; assay: Cytotoxicity against human SN12C cells assessed as effect on cell growth at 10 uM incubated for 48 hrs by sulforhodamine B assay
[7] = system: SK-MEL-5; assay: Cytotoxicity against human SK-MEL-5 cells assessed as effect on cell growth at 10 uM incubated for 48 hrs by sulforhodamine B assay; settings: sk-mel-5, 48 h
[8] = system: NCI-H522; assay: Cytotoxicity against human NCI-H522 cells assessed as effect on cell growth at 10 uM incubated for 48 hrs by sulforhodamine B assay; settings: nci-h522, 48 h
[9] = system: OVCAR-5; assay: Cytotoxicity against human OVCAR5 cells assessed as effect on cell growth at 10 uM incubated for 48 hrs by sulforhodamine B assay; settings: ovcar-5, 48 h
[10] = system: UACC-257; assay: Cytotoxicity against human UACC257 cells assessed as effect on cell growth at 10 uM incubated for 48 hrs by sulforhodamine B assay; settings: uacc-257, 48 h
[11] = system: SW-620; assay: Cytotoxicity against human SW620 cells assessed as effect on cell growth at 10 uM incubated for 48 hrs by sulforhodamine B assay; settings: sw-620, 48 h
[12] = system: MOLT-4; assay: Cytotoxicity against human MOLT4 cells assessed as effect on cell growth at 10 uM incubated for 48 hrs by sulforhodamine B assay; settings: molt-4, 48 h
[13] = system: HL-60(TB); assay: Cytotoxicity against human HL-60(TB) cells assessed as effect on cell growth at 10 uM incubated for 48 hrs by sulforhodamine B assay
[14] = system: NCI-H226; assay: Cytotoxicity against human NCI-H226 cells assessed as effect on cell growth at 10 uM incubated for 48 hrs by sulforhodamine B assay; settings: nci-h226, 48 h
[15] = system: EKVX; assay: Cytotoxicity against human EKVX cells assessed as effect on cell growth at 10 uM incubated for 48 hrs by sulforhodamine B assay
[16] = system: SK-OV-3; assay: Cytotoxicity against human SKOV3 cells assessed as effect on cell growth at 10 uM incubated for 48 hrs by sulforhodamine B assay; settings: sk-ov-3, 48 h
[17] = system: LOX IMVI; assay: Cytotoxicity against human LOXIMVI cells assessed as effect on cell growth at 10 uM incubated for 48 hrs by sulforhodamine B assay
[18] = system: SF-268; assay: Cytotoxicity against human SF268 cells assessed as effect on cell growth at 10 uM incubated for 48 hrs by sulforhodamine B assay; settings: sf-268, 48 h
[19] = system: SNB-19; assay: Cytotoxicity against human SNB19 cells assessed as effect on cell growth at 10 uM incubated for 48 hrs by sulforhodamine B assay; settings: snb-19, 48 h
[20] = system: PC-3; assay: Cytotoxicity against human PC3 cells assessed as effect on cell growth at 10 uM incubated for 48 hrs by sulforhodamine B assay; settings: pc-3, 48 h

Measured: Activity

O=C(NCc1ccc(Cl)cc1Cl)[C@@H]1CCC(=O)N1c1ccc(Cl)cc1
Non-Toxic: all assays above

O=C(NCc1ccc(Cl)cc1Cl)[C@@H]1CCC(=O)N1c1cncs1
Non-Toxic: all assays above

O=C(NCc1ccc(Cl)cc1Cl)[C@@H]1CCC(=O)N1c1ccc(Cl)cc1Cl
Non-Toxic: all assays above

O=C(NCc1ccc(Cl)cc1Cl)[C@@H]1CCC(=O)N1c1cscn1
Non-Toxic: all assays above

C[n+]1ccccc1C(=O)NCc1ccc(Cl)cc1Cl.[I-]
Non-Toxic: all assays above

CN(C)/C=C1\C[C@H]2C(=O)N(Cc3ccccc3Cl)C(N(C)C)N2C1=O (stereo not given in full)
Non-Toxic: all assays above

O=C1N[C@H](C(=O)NCc2ccc(Cl)cc2Cl)C/C1=C/NCc1ccc(Cl)cc1Cl
Non-Toxic: all assays above

COc1cc(CNC(=O)[C@@H]2CCC(=O)N2)cc(OC)c1OC
Non-Toxic: all assays above

O=C(NCCc1ccccc1)[C@@H]1CCC(=O)N1Cc1ccc(Cl)cc1Cl
Non-Toxic: all assays above

COC(=O)[C@@H]1C/C(=C\NCc2ccc(Cl)cc2Cl)C(=O)N1C(=O)OC
Non-Toxic: all assays above

CCCCCCN1C(=O)[C@@H]2CCC(=O)N2C1N(C)C (stereo not given in full)
Non-Toxic: all assays above

Cc1ccc(NC(=O)[C@@H]2CCC(=O)N2c2ccccc2)cc1
Non-Toxic: all assays above

O=C(NCc1ccc(Cl)cc1Cl)[C@@H]1CCC(=O)N1c1cccs1
Non-Toxic: all assays above
